Source: ChEMBL document CHEMBL3124811, “Potent and selective double-headed thiophene-2-carboximidamide inhibitors of neuronal nitric oxide synthase for the treatment of melanoma” (J Med Chem, 2014)

Assays:
[1] = Selectivity ratio of Ki(app) for recombinant bovine eNOS to Ki(app) for recombinant rat nNOS
[2] = Selectivity ratio of Ki(app) for recombinant mouse iNOS to Ki(app) for recombinant rat nNOS
Nitric oxide synthase 3 = target: T1, Nitric oxide synthase 3 (Bos taurus, UniProt P29473)
T1 sequence (P29473 whole entry): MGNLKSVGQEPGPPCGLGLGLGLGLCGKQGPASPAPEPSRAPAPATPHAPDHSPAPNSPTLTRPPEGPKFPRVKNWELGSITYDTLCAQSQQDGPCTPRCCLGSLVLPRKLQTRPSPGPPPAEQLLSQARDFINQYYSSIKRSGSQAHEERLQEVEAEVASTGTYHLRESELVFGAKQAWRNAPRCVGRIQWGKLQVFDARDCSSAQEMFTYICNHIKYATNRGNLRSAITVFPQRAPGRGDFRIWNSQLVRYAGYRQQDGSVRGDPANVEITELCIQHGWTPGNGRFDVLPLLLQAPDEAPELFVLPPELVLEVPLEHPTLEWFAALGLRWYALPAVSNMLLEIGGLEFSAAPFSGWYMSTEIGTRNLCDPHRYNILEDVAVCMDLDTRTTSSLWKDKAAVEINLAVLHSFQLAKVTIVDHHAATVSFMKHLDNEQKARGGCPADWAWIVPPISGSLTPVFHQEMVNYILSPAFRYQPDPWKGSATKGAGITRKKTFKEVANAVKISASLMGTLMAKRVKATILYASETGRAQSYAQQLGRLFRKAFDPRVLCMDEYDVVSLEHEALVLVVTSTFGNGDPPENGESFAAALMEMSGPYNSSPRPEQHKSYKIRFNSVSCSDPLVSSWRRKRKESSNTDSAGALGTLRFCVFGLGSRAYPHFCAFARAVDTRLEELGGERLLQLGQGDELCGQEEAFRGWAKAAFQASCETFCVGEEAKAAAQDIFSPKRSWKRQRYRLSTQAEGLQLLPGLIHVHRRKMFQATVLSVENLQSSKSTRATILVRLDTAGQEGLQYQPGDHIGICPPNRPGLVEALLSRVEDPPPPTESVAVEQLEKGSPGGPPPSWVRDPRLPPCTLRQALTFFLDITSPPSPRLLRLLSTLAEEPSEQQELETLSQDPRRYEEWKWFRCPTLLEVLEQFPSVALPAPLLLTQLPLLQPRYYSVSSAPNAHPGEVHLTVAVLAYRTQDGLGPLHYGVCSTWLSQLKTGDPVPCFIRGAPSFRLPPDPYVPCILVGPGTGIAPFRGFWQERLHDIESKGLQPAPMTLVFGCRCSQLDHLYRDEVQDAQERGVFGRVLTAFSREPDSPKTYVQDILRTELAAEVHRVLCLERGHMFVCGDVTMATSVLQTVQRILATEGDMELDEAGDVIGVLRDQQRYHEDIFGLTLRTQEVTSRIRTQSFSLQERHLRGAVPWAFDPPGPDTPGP

[3] = target: T2, Nitric oxide synthase, inducible (Mus musculus, UniProt P29477)
T2 sequence (P29477 whole entry): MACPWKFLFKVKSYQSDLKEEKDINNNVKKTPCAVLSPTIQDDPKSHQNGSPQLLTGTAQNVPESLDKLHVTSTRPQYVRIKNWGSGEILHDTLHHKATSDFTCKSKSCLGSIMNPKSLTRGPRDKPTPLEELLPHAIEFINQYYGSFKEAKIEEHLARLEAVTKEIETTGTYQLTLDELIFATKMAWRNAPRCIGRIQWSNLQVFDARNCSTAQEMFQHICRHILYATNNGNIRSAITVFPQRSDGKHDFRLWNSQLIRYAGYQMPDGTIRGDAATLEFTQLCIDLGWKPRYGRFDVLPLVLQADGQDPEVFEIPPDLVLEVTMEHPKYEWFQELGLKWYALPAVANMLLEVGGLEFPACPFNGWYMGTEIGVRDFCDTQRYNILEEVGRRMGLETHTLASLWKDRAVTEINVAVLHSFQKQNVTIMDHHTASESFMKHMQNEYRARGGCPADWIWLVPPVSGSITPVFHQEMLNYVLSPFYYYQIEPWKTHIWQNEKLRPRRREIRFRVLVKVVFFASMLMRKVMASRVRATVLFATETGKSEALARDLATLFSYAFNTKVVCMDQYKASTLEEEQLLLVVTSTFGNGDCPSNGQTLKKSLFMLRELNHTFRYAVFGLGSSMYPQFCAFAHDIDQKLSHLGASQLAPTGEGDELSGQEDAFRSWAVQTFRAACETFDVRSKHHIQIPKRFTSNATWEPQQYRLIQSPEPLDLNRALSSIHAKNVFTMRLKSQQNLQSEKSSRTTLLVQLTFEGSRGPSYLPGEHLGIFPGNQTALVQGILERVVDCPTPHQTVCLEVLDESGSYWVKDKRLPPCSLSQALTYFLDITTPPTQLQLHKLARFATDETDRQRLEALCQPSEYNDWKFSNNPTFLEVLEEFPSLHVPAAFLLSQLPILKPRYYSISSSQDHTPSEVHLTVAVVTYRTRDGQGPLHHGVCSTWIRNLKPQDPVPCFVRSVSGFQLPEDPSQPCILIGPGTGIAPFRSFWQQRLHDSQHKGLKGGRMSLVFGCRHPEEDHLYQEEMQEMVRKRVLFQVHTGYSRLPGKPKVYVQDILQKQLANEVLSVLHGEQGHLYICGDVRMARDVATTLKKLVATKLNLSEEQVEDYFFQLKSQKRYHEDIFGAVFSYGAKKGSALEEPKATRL

Nitric oxide synthase 1 = Nitric oxide synthase 1 (Rattus norvegicus, UniProt P29476)
Chain of Nitric oxide synthase 1 (P29476 whole entry): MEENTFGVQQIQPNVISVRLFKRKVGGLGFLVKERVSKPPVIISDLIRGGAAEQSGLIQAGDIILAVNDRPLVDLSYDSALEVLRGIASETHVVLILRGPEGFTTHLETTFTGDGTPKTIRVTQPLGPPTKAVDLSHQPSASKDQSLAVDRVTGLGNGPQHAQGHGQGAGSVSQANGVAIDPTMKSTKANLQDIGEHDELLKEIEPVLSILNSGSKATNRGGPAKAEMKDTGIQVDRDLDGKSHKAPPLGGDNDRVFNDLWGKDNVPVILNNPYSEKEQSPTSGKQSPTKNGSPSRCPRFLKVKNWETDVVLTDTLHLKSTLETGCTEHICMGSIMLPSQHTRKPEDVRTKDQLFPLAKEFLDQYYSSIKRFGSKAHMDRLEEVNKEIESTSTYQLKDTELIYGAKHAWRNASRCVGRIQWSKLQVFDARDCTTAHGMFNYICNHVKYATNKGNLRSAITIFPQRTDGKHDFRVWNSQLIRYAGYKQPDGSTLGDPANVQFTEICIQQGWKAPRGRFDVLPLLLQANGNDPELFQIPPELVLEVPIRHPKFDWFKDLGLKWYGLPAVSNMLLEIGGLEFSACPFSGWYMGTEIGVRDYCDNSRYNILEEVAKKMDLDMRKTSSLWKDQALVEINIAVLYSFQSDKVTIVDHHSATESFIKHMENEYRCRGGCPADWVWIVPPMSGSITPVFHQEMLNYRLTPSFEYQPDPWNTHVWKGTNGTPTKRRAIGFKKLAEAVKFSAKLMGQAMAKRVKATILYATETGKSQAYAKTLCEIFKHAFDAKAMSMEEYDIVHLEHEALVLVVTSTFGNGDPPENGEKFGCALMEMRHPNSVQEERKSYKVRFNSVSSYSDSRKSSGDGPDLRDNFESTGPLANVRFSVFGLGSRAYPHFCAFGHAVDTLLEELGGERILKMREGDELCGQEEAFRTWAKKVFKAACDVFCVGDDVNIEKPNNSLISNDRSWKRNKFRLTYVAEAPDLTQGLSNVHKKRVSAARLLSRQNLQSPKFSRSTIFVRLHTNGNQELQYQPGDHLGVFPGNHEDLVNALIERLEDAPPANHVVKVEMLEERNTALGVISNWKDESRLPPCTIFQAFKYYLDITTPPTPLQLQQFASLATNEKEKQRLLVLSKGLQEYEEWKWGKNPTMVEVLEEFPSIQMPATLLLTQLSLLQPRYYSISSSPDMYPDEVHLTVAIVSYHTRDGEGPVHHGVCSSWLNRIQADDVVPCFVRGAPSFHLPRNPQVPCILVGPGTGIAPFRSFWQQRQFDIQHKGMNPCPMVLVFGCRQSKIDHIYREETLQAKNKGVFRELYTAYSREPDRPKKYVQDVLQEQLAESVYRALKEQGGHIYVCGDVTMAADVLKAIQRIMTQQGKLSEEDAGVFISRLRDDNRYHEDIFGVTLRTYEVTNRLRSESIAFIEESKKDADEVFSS

SMILES: N=C(Nc1cccc(OCCCOc2cccc(NC(=N)c3cccs3)c2)c1)c1cccs1
- Ratio Ki(app) [1]: 17
- Ratio Ki(app) [2]: 53
- Ki (Nitric oxide synthase 3): 4 µM
- Ki [3]: 12.6 µM
- Ki (Nitric oxide synthase 1): 0.237 µM

SMILES: N=C(Nc1cccc(CCc2cccc(NC(=N)c3cccs3)c2)c1)c1cccs1
- Ratio Ki(app) [1]: 89
- Ratio Ki(app) [2]: 141
- Ki (Nitric oxide synthase 3): 66 µM
- Ki [3]: 104 µM
- Ki (Nitric oxide synthase 1): 0.739 µM

SMILES: N=C(Nc1cccc(OCCOc2cccc(NC(=N)c3cccs3)c2)c1)c1cccs1
- Ratio Ki(app) [1]: 105
- Ratio Ki(app) [2]: 513

SMILES: N=C(Nc1cccc(-c2cccc(NC(=N)c3cccs3)c2)c1)c1cccs1
- Ratio Ki(app) [1]: 225
- Ratio Ki(app) [2]: 84
- Ki (Nitric oxide synthase 3): 177 µM
- Ki [3]: 66.4 µM
- Ki (Nitric oxide synthase 1): 0.787 µM

SMILES: NC(=Nc1cccc(OCCOc2cccc(N=C(N)c3cccs3)c2)c1)c1cccs1
- Ki (Nitric oxide synthase 3): 13.7 µM
- Ki [3]: 66.8 µM
- Ki (Nitric oxide synthase 1): 0.13 µM

SMILES: NC(=Nc1cccc(Cc2cccc(N=C(N)c3cccs3)c2)c1)c1cccs1
- Ki (Nitric oxide synthase 3): 133 µM
- Ki [3]: 79 µM
